# Laboratory results from patent publication US20100105651A1, “ANTAGONISTS OF SNS SODIUM CHANNELS” (priority 2005, published 2010).
# Molecular target: T1, human NaV1.8 (hNaV1.8) ion channel (Homo sapiens, UniProt Q9Y5Y9)
# T1 construct: expressed in transfected cells
# Assay: Inhibition of Human NaV1.8 stably expressed in SH-SY-5Y cells (membrane potential dye fluorescence assay)
# Type: cell-based
# Conditions: SH-SY-5Y cells stably expressing hNaV1.8; FLIPR membrane potential dye; 10 μM pyrethroid, 250 nM TTX; test range 100 μM-0.05 μM; read-out: hNav1.8 IC50
# T1 sequence (Q9Y5Y9 whole entry): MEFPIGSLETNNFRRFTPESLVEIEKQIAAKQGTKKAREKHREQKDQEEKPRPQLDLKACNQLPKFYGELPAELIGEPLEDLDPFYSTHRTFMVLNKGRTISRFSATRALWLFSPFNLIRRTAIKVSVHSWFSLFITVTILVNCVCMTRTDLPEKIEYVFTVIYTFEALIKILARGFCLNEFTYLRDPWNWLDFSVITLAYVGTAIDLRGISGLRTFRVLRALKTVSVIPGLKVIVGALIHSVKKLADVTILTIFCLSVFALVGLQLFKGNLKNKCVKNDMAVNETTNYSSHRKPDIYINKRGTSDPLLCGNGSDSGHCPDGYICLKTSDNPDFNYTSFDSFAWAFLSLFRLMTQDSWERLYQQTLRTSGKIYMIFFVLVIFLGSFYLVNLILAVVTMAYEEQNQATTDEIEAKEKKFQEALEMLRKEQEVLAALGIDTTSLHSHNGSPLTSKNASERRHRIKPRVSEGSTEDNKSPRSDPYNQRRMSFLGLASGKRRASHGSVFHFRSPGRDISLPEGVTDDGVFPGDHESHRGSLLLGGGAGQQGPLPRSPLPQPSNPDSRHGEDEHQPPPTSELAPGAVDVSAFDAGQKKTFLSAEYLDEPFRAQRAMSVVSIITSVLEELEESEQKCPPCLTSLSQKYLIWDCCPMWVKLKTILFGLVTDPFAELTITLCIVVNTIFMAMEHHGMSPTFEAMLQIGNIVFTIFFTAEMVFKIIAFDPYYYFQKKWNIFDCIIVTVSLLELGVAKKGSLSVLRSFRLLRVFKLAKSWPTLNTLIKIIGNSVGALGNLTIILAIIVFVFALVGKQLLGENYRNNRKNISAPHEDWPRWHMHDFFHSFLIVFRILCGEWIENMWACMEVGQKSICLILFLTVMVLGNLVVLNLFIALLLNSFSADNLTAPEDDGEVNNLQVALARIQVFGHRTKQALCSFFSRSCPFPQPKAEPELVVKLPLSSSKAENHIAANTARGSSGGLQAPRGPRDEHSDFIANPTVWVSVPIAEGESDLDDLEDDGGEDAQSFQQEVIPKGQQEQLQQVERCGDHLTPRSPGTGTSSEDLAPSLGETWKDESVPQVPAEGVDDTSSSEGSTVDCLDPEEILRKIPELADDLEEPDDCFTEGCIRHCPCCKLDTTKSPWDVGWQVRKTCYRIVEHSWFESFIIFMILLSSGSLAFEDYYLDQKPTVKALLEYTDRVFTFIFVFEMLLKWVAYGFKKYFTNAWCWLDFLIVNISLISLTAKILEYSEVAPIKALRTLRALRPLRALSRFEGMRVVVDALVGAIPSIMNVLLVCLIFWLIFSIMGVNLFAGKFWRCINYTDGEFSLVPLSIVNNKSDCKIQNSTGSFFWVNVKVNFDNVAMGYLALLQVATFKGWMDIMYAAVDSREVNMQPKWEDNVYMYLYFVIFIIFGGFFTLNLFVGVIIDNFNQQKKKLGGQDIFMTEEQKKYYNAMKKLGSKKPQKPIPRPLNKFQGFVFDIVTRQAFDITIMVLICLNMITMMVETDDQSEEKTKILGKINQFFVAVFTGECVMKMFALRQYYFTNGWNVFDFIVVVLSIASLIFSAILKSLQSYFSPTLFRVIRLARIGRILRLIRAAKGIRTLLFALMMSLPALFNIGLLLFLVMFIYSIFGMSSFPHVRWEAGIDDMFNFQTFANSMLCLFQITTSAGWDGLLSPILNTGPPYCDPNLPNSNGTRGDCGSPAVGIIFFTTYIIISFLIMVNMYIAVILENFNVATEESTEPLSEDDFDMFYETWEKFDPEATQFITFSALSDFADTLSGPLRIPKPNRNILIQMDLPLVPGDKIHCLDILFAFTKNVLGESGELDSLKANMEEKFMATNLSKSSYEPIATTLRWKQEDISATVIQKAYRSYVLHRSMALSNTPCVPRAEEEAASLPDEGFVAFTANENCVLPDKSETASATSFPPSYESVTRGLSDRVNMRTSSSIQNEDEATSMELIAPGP
row,Compound,IC50 [nM]
1,"CC(c1ccccc1C(F)(F)F)N(C)C1CN(C(=O)Nc2ccc(Oc3ccccc3)cc2)C1 (stereo not drawn) [Example 93, 3-{Methyl-[1-(2-trifluoromethyl-phenyl)-ethyl]-amino}-azetidine-1-carboxylic acid (4-phenoxy-phenyl)-amide]",1800
2,"CC(NC1CN(C(=O)Nc2ccc(Oc3ccc(F)cc3)cc2)C1)c1ccccc1Cl (stereo not drawn) [Example 94, 3-[1-(2-Chloro-phenyl)-ethylamino]-azetidine-1-carboxylic acid [4-(4-fluoro-phenoxy)-phenyl]-amide]",540
3,"CC(c1ccc(F)cc1)N(C)C1CN(C(=O)Nc2cccc(C(F)(F)F)c2)C1 (stereo not drawn) [Example 95, 3-{[1-(4-Fluoro-phenyl)-ethyl]-methyl-amino}-azetidine-1-carboxylic acid (3-trifluoromethyl-phenyl)-amide]",4550
4,"Cc1ccccc1C(C)N(C)C1CN(C(=O)Nc2cccc(C(F)(F)F)c2)C1 (stereo not drawn) [Example 96, 3-[Methyl-(1-o-tolyl-ethyl)-amino]-azetidine-1-carboxylic acid (3-trifluoromethyl-phenyl)-amide]",3020
5,"CC(c1ccccc1Cl)N(C)C1CN(C(=O)Nc2cccc(C(F)(F)F)c2)C1 (stereo not drawn) [Example 97, 3-{[1-(2-Chloro-phenyl)-ethyl]-methyl-amino}-azetidine-1-carboxylic acid (3-trifluoromethyl-phenyl)-amide]",3640
6,"CC(c1ccc(F)cc1)N(C)C1CN(C(=O)Nc2ccc(OC(F)(F)F)cc2)C1 (stereo not drawn) [Example 98, 3-{[1-(4-Fluoro-phenyl)-ethyl]-methyl-amino}-azetidine-1-carboxylic acid (4-trifluoromethoxy-phenyl)-amide]",3190
7,"CN(C1CN(C(=O)Nc2ccc(Oc3ccccc3)cc2)C1)C(C)(C)c1ccccc1 [Example 99, 3-[Methyl-(1-methyl-1-phenyl-ethyl)-amino]-azetidine-1-carboxylic acid (4-phenoxy-phenyl)-amide]",630
8,"CC(c1ccc(F)cc1Cl)N(C)C1CN(C(=O)Nc2cccc(Oc3ccccc3)c2)C1 (stereo not drawn) [Example 100, 3-{[1-(2-Chloro-4-fluoro-phenyl)-ethyl]-methyl-amino}-azetidine-1-carboxylic acid (3-phenoxy-phenyl)-amide]",1210
9,"Cc1ccc(C(C)NC2CN(C(=O)Nc3ccc(Oc4ccccc4)cc3)C2)c(C)c1 (stereo not drawn) [Example 101, 3-[1-(2,4-Dimethyl-phenyl)-ethylamino]-azetidine-1-carboxylic acid (4-phenoxy-phenyl)-amide]",290
10,"CC(NC1CN(C(=O)Nc2cccc(Oc3ccccc3)c2)C1)c1ccccc1Cl (stereo not drawn) [Example 102, 3-[1-(2-Chloro-phenyl)-ethylamino]-azetidine-1-carboxylic acid (3-phenoxy-phenyl)-amide]",800
11,"CC(NC1CN(C(=O)Nc2cccc(Oc3ccccc3)c2)C1)c1ccc(F)cc1 (stereo not drawn) [Example 103, 3-[1-(4-Fluoro-phenyl)-ethylamino]-azetidine-1-carboxylic acid (3-phenoxy-phenyl)-amide]",730
12,"Cc1ccccc1C(C)NC1CN(C(=O)Nc2ccc(C(F)(F)F)cc2)C1 (stereo not drawn) [Example 104, 3-(1-o-Tolyl-ethylamino)-azetidine-1-carboxylic acid (4-trifluoromethyl-phenyl)-amide]",2540
13,"Cc1ccc(C(C)N(C)C2CN(C(=O)Nc3ccc(Oc4ccccc4)cc3)C2)c(C)c1 (stereo not drawn) [Example 105, 3-{[1-(2,4-Dimethyl-phenyl)-ethyl]-methyl-amino}-azetidine-1-carboxylic acid (4-phenoxy-phenyl)-amide]",420
14,"Cc1ccccc1C(C)NC1CN(C(=O)Nc2cccc(Oc3ccccc3)c2)C1 (stereo not drawn) [Example 106, 3-(1-o-Tolyl-ethylamino)-azetidine-1-carboxylic acid (3-phenoxy-phenyl)-amide]",560
15,"Cc1ccccc1C(C)N(C)C1CN(C(=O)Nc2cccc(Oc3ccccc3)c2)C1 (stereo not drawn) [Example 107, 3-[Methyl-(1-o-tolyl-ethyl)-amino]-azetidine-1-carboxylic acid (3-phenoxy-phenyl)-amide]",510
16,"Cc1ccccc1C(C)NC1CN(C(=O)Nc2ccc(Oc3ccc(F)cc3)cc2)C1 (stereo not drawn) [Example 108, 3-(1-o-Tolyl-ethylamino)-azetidine-1-carboxylic acid [4-(4-fluoro-phenoxy)-phenyl]-amide]",270
17,"CC(c1ccc(F)cc1)N(C)C1CN(C(=O)Nc2cccc(Oc3ccccc3)c2)C1 (stereo not drawn) [Example 109, 3-{[1-(4-Fluoro-phenyl)-ethyl]-methyl-amino}-azetidine-1-carboxylic acid (3-phenoxy-phenyl)-amide]",470
18,"Cc1ccccc1C(C)N(C)C1CN(C(=O)Nc2ccc(C(F)(F)F)cc2)C1 (stereo not drawn) [Example 110, 3-[Methyl-(1-o-tolyl-ethyl)-amino]-azetidine-1-carboxylic acid (4-trifluoromethyl-phenyl)-amide]",2240
19,"Cc1cc(F)ccc1C(C)NC1CN(C(=O)Nc2ccc(Oc3ccccc3)cc2)C1 (stereo not drawn) [Example 111, 3-[1-(4-Fluoro-2-methyl-phenyl)-ethylamino]-azetidine-1-carboxylic acid (4-phenoxy-phenyl)-amide]",630
20,"Cc1cc(F)ccc1C(C)NC1CN(C(=O)Nc2cccc(Oc3ccccc3)c2)C1 (stereo not drawn) [Example 112, 3-[1-(4-Fluoro-2-methyl-phenyl)-ethylamino]-azetidine-1-carboxylic acid (3-phenoxy-phenyl)-amide]",660
21,"Cc1cc(F)ccc1C(C)NC1CN(C(=O)Nc2cccc(C(F)(F)F)c2)C1 (stereo not drawn) [Example 113, 3-[1-(4-Fluoro-2-methyl-phenyl)-ethylamino]-azetidine-1-carboxylic acid (3-trifluoromethyl-phenyl)-amide]",2840
22,"Cc1cc(F)ccc1C(C)NC1CN(C(=O)Nc2ccc(C(F)(F)F)cc2)C1 (stereo not drawn) [Example 114, 3-[1-(4-Fluoro-2-methyl-phenyl)-ethylamino]-azetidine-1-carboxylic acid (4-trifluoromethyl-phenyl)-amide]",2300
23,"COc1ccc(C(C)NC2CN(C(=O)Nc3ccc(C(F)(F)F)cc3)C2)cc1 (stereo not drawn) [Example 115, 3-[1-(4-Methoxy-phenyl)-ethylamino]-azetidine-1-carboxylic acid (4-trifluoromethyl-phenyl)-amide]",2430
24,"Cc1cc(F)ccc1C(C)N(C)C1CN(C(=O)Nc2ccc(Oc3ccccc3)cc2)C1 (stereo not drawn) [Example 117, 3-{[1-(4-Fluoro-2-methyl-phenyl)-ethyl]-methyl-amino}-azetidine-1-carboxylic acid (4-phenoxy-phenyl)-amide]",890
25,"Cc1cccc(C(C)NC2CN(C(=O)Nc3ccc(Oc4ccccc4)cc3)C2)c1 (stereo not drawn) [Example 118, 3-(1-m-Tolyl-ethylamino)-azetidine-1-carboxylic acid (4-phenoxy-phenyl)-amide]",430
26,"Cc1cc(F)ccc1C(C)NC1CN(C(=O)Nc2ccc(Oc3ccc(F)cc3)cc2)C1 (stereo not drawn) [Example 119, 3-[1-(4-Fluoro-2-methyl-phenyl)-ethylamino]-azetidine-1-carboxylic acid [4-(4-fluoro-phenoxy)-phenyl]-amide]",460
27,"CC(NC1CN(C(=O)Nc2ccc(Oc3ccccc3)cc2)C1)c1ccc(N2CCCCC2)cc1 (stereo not drawn) [Example 120, 3-[1-(4-Piperidin-1-yl-phenyl)-ethylamino]-azetidine-1-carboxylic acid (4-phenoxy-phenyl)-amide]",590
